# Measurements published in ChEMBL document CHEMBL4373690, “Photoactivatable Prolyl Hydroxylase 2 Inhibitors for Stabilizing the Hypoxia-Inducible Factor with Light” (J Med Chem, 2019).
# Calls of active or inactive are those of the source. The rule behind the calls is not given here.
# How the values were obtained:
# HUVEC = assay: Cytotoxicity against HUVEC cells at 100 uM after 72 hrs by MTT assay; format: cell-based; settings: human
# L02 = assay: Cytotoxicity against human L02 cells at 100 uM after 72 hrs by MTT assay; format: cell-based; settings: l02, 72 h
# HEK293 = assay: Cytotoxicity against HEK293 cells at 100 uM after 72 hrs by MTT assay; format: cell-based; settings: human, hek293, 72 h
# Hep 3B2 = assay: Cytotoxicity against human Hep3B cells at 100 uM after 72 hrs by MTT assay; format: cell-based; settings: hep 3b2, 72 h
# [1] = target: Egl nine homolog 1 (Homo sapiens) (UniProt Q9GZT9); assay: Photoactivated inhibition of PHD2 (181 to 426 residues) (unknown origin) at 1.23 uM using FITC-HIF1alpha (556 to 574 residues) as substrate incubated for 60 mins using laser irradiated compound at 405 nm light by fluorescence polarization assay
# Chain of Egl nine homolog 1 (Homo sapiens) (Q9GZT9 2-426 limits assumed): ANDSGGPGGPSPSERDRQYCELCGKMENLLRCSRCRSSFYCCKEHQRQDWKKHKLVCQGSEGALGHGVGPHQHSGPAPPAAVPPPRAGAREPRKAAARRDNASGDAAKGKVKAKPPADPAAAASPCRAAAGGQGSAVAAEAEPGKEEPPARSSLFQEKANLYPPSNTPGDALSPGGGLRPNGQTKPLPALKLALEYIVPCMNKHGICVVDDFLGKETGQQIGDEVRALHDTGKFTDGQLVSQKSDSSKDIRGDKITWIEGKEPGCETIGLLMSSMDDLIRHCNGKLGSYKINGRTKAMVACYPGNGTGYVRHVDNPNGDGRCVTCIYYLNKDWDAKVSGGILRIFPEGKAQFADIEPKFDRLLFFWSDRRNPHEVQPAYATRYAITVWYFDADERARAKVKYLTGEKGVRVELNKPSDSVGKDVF
# [2] = Drug metabolism in pH 7.4 PBS assessed as light-mediated formation of N-(5-(1-(2-(4-chlorophenoxy)ethyl)-1H-1,2,3-triazol-4-yl)-3-hydroxypicolinoyl)glycine at 50 uM followed by laser irradiation for 120 mins by HPLC analysis
# [3] = Drug metabolism in pH 7.4 PBS assessed as light-mediated formation of N-(5-(1-(2-(4-chlorophenoxy)ethyl)-1H-1,2,3-triazol-4-yl)-3-hydroxypicolinoyl)glycine at 50 uM followed by laser irradiation for 15 mins by HPLC analysis
# [4] = Drug metabolism in pH 7.4 PBS assessed as light-mediated formation of N-(5-(1-(2-(4-chlorophenoxy)ethyl)-1H-1,2,3-triazol-4-yl)-3-hydroxypicolinoyl)glycine at 50 uM followed by laser irradiation for 5 mins by HPLC analysis
# [5] = target: Egl nine homolog 1 (Homo sapiens) (UniProt Q9GZT9); assay: Photoactivated inhibition of PHD2 in human Hep3B cells assessed as increase in HIF-2alpha level in presence of light irradiation for 1 to 20 mins measured after 10 hrs by Western blot analysis; format: cell-based
# [6] = Drug metabolism in pH 7.4 PBS assessed as light-mediated formation of N-(5-(1-(2-(4-chlorophenoxy)ethyl)-1H-1,2,3-triazol-4-yl)-3-hydroxypicolinoyl)glycine at 50 uM followed by laser irradiation for 30 secs by HPLC analysis
# [7] = Chemical stability in pH 7.4 PBS buffer at 50 uM measured over 24 hrs by HPLC analysis; format: physicochemical; settings: pH 7.4, 24 h
# [8] = Drug metabolism in pH 7.4 PBS assessed as light-mediated formation of N-(5-(1-(2-(4-chlorophenoxy)ethyl)-1H-1,2,3-triazol-4-yl)-3-hydroxypicolinoyl)glycine at 50 uM followed by laser irradiation for 2 mins by HPLC analysis
# [9] = target: Egl nine homolog 1 (Homo sapiens) (UniProt Q9GZT9); assay: Photoactivated inhibition of PHD2 in HEK293 cells harboring firefly luciferase gene and renilla luciferase gene assessed as spatiotemporal dependent accumulation of hypoxia response element level at 100 uM using […] under laser light irradiation after 24 hrs by chemiluminescence assay; format: cell-based
# [10] = Drug metabolism in pH 7.4 PBS assessed as light-mediated formation of N-(5-(1-(2-(4-chlorophenoxy)ethyl)-1H-1,2,3-triazol-4-yl)-3-hydroxypicolinoyl)glycine at 50 uM followed by laser irradiation by HPLC analysis
# [11] = Drug metabolism in pH 7.4 PBS assessed as light-mediated formation of N-(5-(1-(2-(4-chlorophenoxy)ethyl)-1H-1,2,3-triazol-4-yl)-3-hydroxypicolinoyl)glycine at 50 uM followed by laser irradiation for 9 mins by HPLC analysis
# [12] = Stability in rat plasma assessed as compound remaining at […] measured at 8 hrs by HPLC analysis; format: ADME, cell-free; settings: read-out: Stability
# [13] = target: Egl nine homolog 1 (Homo sapiens) (UniProt Q9GZT9); assay: Photoactivated inhibition of PHD2 in human Hep3B cells assessed as increase in HIF-2alpha level in nucleus in presence of light irradiation for 20 mins measured after 10 hrs by Western blot analysis; format: cell-based
# [14] = target: Egl nine homolog 1 (Homo sapiens) (UniProt Q9GZT9); assay: Photoactivated inhibition of PHD2 (181 to 426 residues) (unknown origin) using FITC-HIF1alpha (556 to 574 residues) as substrate incubated for 60 mins using laser irradiated compound at 405 nm light for 30 secs to 30 mins by fluorescence polarization assay
# [15] = target: Egl nine homolog 1 (Homo sapiens) (UniProt Q9GZT9); assay: Photoactivated inhibition of PHD2 in human Hep3B cells assessed as stabilization of HIFalpha by measuring upregulation of EPO gene expression at 50 uM in presence of light irradiation for 1 to 30 mins by qRT-PCR analysis; format: cell-based
# [16] = Drug metabolism in pH 7.4 PBS assessed as light-mediated formation of 7-(diethylamino)-4-(hydroxymethyl)-2H-chromen-2-one at 50 uM followed by laser irradiation by UV-Visible spectroscopy
# [17] = target: Egl nine homolog 1 (Homo sapiens) (UniProt Q9GZT9); assay: Photoactivated inhibition of PHD2 in human Hep3B cells assessed as stabilization of HIFalpha by measuring upregulation of EPO gene expression at 50 uM in presence of light irradiation for >20 mins by qRT-PCR analysis; format: cell-based
# [18] = target: Egl nine homolog 1 (Homo sapiens) (UniProt Q9GZT9); assay: Photoactivated inhibition of PHD2 (181 to 426 residues) (unknown origin) at 1.23 uM using FITC-HIF1alpha (556 to 574 residues) as substrate incubated for 60 mins using laser irradiated compound at 405 nm light for >20 mins by fluorescence polarization assay
# [19] = target: Egl nine homolog 1 (Homo sapiens) (UniProt Q9GZT9); assay: Photoactivated inhibition of PHD2 in human Hep3B cells assessed as increase in HIF-1alpha level in nucleus in presence of light irradiation for 20 mins measured after 10 hrs by Western blot analysis; format: cell-based
# [20] = target: Egl nine homolog 1 (Homo sapiens) (UniProt Q9GZT9); assay: Photoactivated inhibition of PHD2 (181 to 426 residues) (unknown origin) at 1.23 uM using FITC-HIF1alpha (556 to 574 residues) as substrate incubated for 60 mins using laser irradiated compound at 405 nm light for 20 mins by fluorescence polarization assay relative to control
# [21] = Drug metabolism in pH 7.4 PBS assessed as light-mediated formation of N-(5-(1-(2-(4-chlorophenoxy)ethyl)-1H-1,2,3-triazol-4-yl)-3-hydroxypicolinoyl)glycine at 50 uM followed by laser irradiation for 30 secs to 20 mins by UV-Visible spectroscopy
# [22] = Drug metabolism in pH 7.4 PBS assessed as light-mediated formation of N-(5-(1-(2-(4-chlorophenoxy)ethyl)-1H-1,2,3-triazol-4-yl)-3-hydroxypicolinoyl)glycine at 50 uM followed by laser irradiation by UV-Visible spectroscopy
# [23] = Drug metabolism in pH 7.4 PBS assessed as light-mediated formation of N-(5-(1-(2-(4-chlorophenoxy)ethyl)-1H-1,2,3-triazol-4-yl)-3-hydroxypicolinoyl)glycine at 50 uM followed by laser irradiation for 20 mins by HPLC analysis
# [24] = target: Egl nine homolog 1 (Homo sapiens) (UniProt Q9GZT9); assay: Photoactivated inhibition of PHD2 in HEK293 cells harboring firefly luciferase gene and renilla luciferase gene assessed as stabilization of HIF-alpha at 100 uM using […] under light irradiation for 1 to 30 mins and measured after 24 hrs by chemiluminescence assay; format: cell-based
# [25] = Stability in human plasma assessed as compound remaining at […] measured at 8 hrs by HPLC analysis; format: ADME, cell-free; settings: read-out: Stability
# [26] = Drug metabolism in pH 7.4 PBS assessed as light-mediated formation of 7-(diethylamino)-4-(hydroxymethyl)-2H-chromen-2-one at 50 uM followed by laser irradiation by HPLC analysis
# [27] = target: Egl nine homolog 1 (Homo sapiens) (UniProt Q9GZT9); assay: Photoactivated inhibition of PHD2 in human Hep3B cells assessed as increase in HIF-1alpha level in presence of light irradiation for 1 to 20 mins measured after 10 hrs by Western blot analysis; format: cell-based
structure (smiles),measurement,setting,value
O=C(O)CNC(=O)c1ncc(-c2cn(CCOc3ccc(Cl)cc3)nn2)cc1O,Activity,HUVEC,Non-Toxic
same,Activity,L02,Non-Toxic
same,Activity,HEK293,Non-Toxic
same,Activity,Hep 3B2,Non-Toxic
CCN(CC)c1ccc2c(COc3cc(-c4cn(CCOc5ccc(Cl)cc5)nn4)cnc3C(=O)NCC(=O)O)cc(=O)oc2c1,inhibition,[1],inactive
same,Drug metabolism,[2],Metabolite not detected
CCN(CC)c1ccc2c(COC(=O)CNC(=O)c3ncc(-c4cn(CCOc5ccc(Cl)cc5)nn4)cc3O)cc(=O)oc2c1,Drug metabolism,[3],82%
same,Drug metabolism,[4],49%
same,inhibition,[5],Active
same,Drug metabolism,[6],5%
same,Stability,[7],Stable
same,Drug metabolism,[8],16%
same,inhibition,[9],Active
same,Drug metabolism,[10],Metabolite detected
same,Activity,HUVEC,Non-Toxic
same,Activity,L02,Non-Toxic
same,Drug metabolism,[11],68%
same,remaining at 8 h,[12],> 90%
same,inhibition,[13],Active
same,inhibition,[14],Active
same,inhibition,[15],Active
same,Drug metabolism,[16],Metabolite detected
same,inhibition,[17],Active
same,inhibition,[18],Active
same,inhibition,[19],Active
same,Activity,HEK293,Non-Toxic
same,inhibition,[20],95.2%
same,Activity,Hep 3B2,Non-Toxic
same,Drug metabolism,[21],Metabolite detected
same,Drug metabolism,[22],Metabolite detected
same,Drug metabolism,[23],100%
same,inhibition,[24],Active
same,remaining at 8 h,[25],> 90%
same,Drug metabolism,[26],Metabolite detected
same,inhibition,[27],Active
